According to patent US5849770A, “Tri-substituted phenyl derivatives useful as PDE IV inhibitors” (Celltech Therapeutics Ltd., priority 1995, dated 1998):
Counter-ions that a name gives are not always drawn.

What was measured:
human PDE IVA = target: T1, human PDE IVA (Homo sapiens, UniProt P27815); test: Isolated recombinant human PDE IVA enzyme, phosphodiesterase activity; format: biochemical; conditions: 0.1 μM [3H]-cAMP, pH 7.5, 30° C.
T1 construct: made in house; host or cells: yeast (inducible vector)
Text: A gene encoding human PDE IV has been cloned from human monocytes (Livi, et al., 1990, Molecular and Cellular Biology, 10, 2678). Using similar procedures we have cloned human PDE IV genes from a number of sources including eosinophils, neutrophils, lymphocytes, monocytes, brain and neuronal tissues. These genes have been transfected into yeast using an inducible vector and various recombinant proteins have been expressed which have the biochemical characteristics of PDE IV (Beavo and Reifsnyder, 1990, TIPS, 11, 150). These recombinant enzymes, particularly the human eosinophil recombinant PDE IVA, have been used as the basis of a screen for potent, selective PDE IV inhibitors.
The enzymes were purified to isoenzyme homogeneity using standard chromatographic techniques.
Phosphodiesterase activity was assayed as follows. The reaction was conducted in 150 μl of standard mixture containing (final concentrations): 50 mM 2-[[tris(hydroxymethyl)methyl]amino]-1-ethanesulphonic acid (TES) --NaOH buffer (pH 7.5), 10 mM MgCl2, 0.1 μM [^3 H]-cAMP and vehicle or various concentrations of the test compounds. The reaction was initiated by addition of enzyme and conducted at 30° C. for between 5 to 30 min. The reaction was terminated by addition of 50 μl 2% trifluoroacetic acid containing [^14 C]-5'AMP for determining recovery of the product. An aliquot of the sample was then applied to a column of neutral alumina and the [^3 H]-cAMP eluted with 10 ml 0.1 TES-NaOH buffer (pH8). The [^3 H]-5'-AMP product was eluted with 2 ml 2M NaOH into a scintillation vial containing 10 ml of scintillation cocktail. Recovery of [^3 H]-5'AMP was determined using the [^14 C]-5'AMP and all assays were conducted in the linear range of the reaction. Results were expressed as IC50 values.

[1] = Rat hepatocyte metabolism; format: in vitro ADME; conditions: rat hepatocytes, after 3 h; read-out: percentage of compound remaining
Experimental: The quantity of compound remaining after a fixed period of time was then determined using mass spectroscopy.
Thus in one such test the compound of Example 1 was compared with a related compound particularly described in International Patent Specification No. WO94/14742 in which the phenylsulphonyl group in the compound of Example 1 is replaced by a hydrogen atom. After 3 h the percentage of each compound remaining was: […]

[2] = Plasma levels after oral administration to squirrel monkeys; format: in vivo; conditions: monkey, 10 mg/kg p.o., after 30 min, read-out: plasma level
Experimental: The same two compounds were also administered orally to squirrel monkeys at 10 mg/kg p.o,. and the plasma levels of each determined. After 1 h the […] compound was present at 1 μg/ml whereas after 30 min the compound of Example 1 was present at 34 μg/ml, thus illustrating the good oral availability of the compound.

T1 sequence (P27815 whole entry): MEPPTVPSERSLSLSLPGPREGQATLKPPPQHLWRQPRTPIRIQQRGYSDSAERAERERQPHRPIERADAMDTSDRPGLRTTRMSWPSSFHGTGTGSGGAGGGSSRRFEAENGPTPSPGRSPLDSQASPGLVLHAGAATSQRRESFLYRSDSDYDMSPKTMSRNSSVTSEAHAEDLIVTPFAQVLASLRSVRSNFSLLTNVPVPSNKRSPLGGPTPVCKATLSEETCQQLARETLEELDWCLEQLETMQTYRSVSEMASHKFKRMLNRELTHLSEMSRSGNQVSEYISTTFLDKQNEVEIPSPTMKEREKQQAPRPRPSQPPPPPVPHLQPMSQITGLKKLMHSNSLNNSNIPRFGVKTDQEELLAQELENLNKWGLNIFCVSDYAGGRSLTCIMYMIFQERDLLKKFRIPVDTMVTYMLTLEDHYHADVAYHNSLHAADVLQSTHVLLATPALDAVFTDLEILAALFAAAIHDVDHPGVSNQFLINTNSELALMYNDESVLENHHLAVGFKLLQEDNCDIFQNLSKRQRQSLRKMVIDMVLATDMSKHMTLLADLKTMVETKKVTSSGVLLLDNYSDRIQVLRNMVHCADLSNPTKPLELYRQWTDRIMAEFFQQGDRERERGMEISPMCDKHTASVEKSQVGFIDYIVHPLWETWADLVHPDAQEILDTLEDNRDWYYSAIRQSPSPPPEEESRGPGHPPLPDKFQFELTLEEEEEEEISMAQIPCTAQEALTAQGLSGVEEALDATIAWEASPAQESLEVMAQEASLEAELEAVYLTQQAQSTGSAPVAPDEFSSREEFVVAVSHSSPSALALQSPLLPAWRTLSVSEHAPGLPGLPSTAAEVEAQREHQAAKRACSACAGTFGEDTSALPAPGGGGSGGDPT

Structure (SMILES)	IC50 (human PDE IVA)	remaining at 3 h [1]	concentration at 0.5 h [2]
COc1ccc([C@H](Cc2ccncc2)c2ccc(NC(=O)NS(=O)(=O)c3ccc(Cl)cc3)cc2)cc1OC1CCCC1 [Example 3, (R)-N-[4-{1-(3-Cyclopentyloxy-4-methoxyphenyl)-2-(4-pyridyl)ethyl}-phenyl]-N'-(4-chlorophenylsulphonyl) urea, hydrochloride]	17.6 nM		
COc1ccc([C@H](Cc2ccncc2)c2ccc(NC(=O)NS(=O)(=O)c3ccccc3)cc2)cc1OC1CCCC1 [Example 1, (R)-N-[4-{1-(3-Cyclopentyloxy-4-methoxyphenyl)-2-(4-pyridyl)ethyl}-phenyl]-N'-(phenylsulphonyl) urea, hydrochloride]	4 nM	56%	34000 ng/mL
COc1ccc([C@H](Cc2ccncc2)c2ccc(NC(=O)NS(=O)(=O)c3ccc(C)cc3)cc2)cc1OC1CCCC1 [Example 2, (R)-N-[4-{1-(3-Cyclopentyloxy-4-methoxyphenyl)-2-(4-pyridyl)ethyl}-phenyl]-N'-(methylphenylsulphonyl) urea, hydrochloride]	13.9 nM		
